Patent US11793770B2, “7-OH-cannabidiol (7-OH-CBD) and/or 7-OH-cannabidivarin (7-OH-CBDV) for use in the treatment of epilepsy” (GW Research Limited, priority 2014, dated 2023)
Marks after values point to notes of the source that are not given here.

What was measured:
PTZ-induced seizures = assay: PTZ model of generalised (acute) seizures; type: in vivo, rat; conditions: for Anti-convulsant action in the PTZ model of acute seizure: 7-OH-CBDV 200 mg/kg, 7-OH-CBD 100 mg/kg IP; for Maximum observed seizure severity (median): IP 30 min before PTZ 70 or 80 mg/kg IP, score scale 0-6, FIG. 1A; for Maximum observed seizure severity (median) / Mortality / Latency to seizure onset: CBD and 7-OH CBD 100 mg/kg; for Mortality: FIG. 1B; for Potency compared with parent cannabinoid: metabolite vs parent (CBD, CBDV) at the same dose; for Latency to seizure onset: FIG. 1D
Procedure: Male Wistar rats (P24-29; 75-110 g) were used to assess the effects of the cannabinoids listed above on the PTZ model of generalised seizures. Animals were habituated to the test environment, cages, injection protocol and handling prior to experimentation. Animals were housed in a room at 21° C. on a 12 hour light: dark cycle (lights on 0900) in 50% humidity, with free access to food and water.
Five 6 L Perspex (RTM) tanks with lids were placed on a single bench with dividers between them. Closed-circuit television (CCTV) cameras were mounted onto the dividers to observe rat behaviour. Sony Topica CCD cameras (Bluecherry, USA) were linked via BNC cables to a low-noise PC via Brooktree digital capture cards (Bluecherry, USA). Zoneminder (http://www.zoneminder.com) software was used to monitor rats, start and end recordings and manage video files. In-house Linux (RTM) scripts were used to encode video files into a suitable format for further offline analysis
Animals were filmed for half an hour after last sign of seizure, and then returned to their cage.
Animals were observed during experimental procedures, but all analysis was performed offline on recorded video files using The Observer behavioural analysis software (Noldus, Netherlands). A seizure severity scoring system was used to determine the levels of seizure experienced by subjects (Table 1). All signs of seizure were detailed for all animals.
The latency (in seconds) from injection of PTZ to first myoclonic jerk (FMJ; score of 1), and to the animal attaining “forelimb clonus with tonic component and body twist” (score of 3.5) were recorded. […] Data are presented as the mean±S.E.M. within an experimental group.
This is given as the median value for each experimental group based on the scoring scale above.
The percentage of animals within an experimental group that died as a result of PTZ-induced seizures. A score of 6 (death) automatically denotes that the animal also experienced tonic-clonic seizures.
This is given as the mean±S.E.M. for each experimental group.
Differences in latencies and durations were assessed by one-way analysis of variance (ANOVA) with post-hoc Tukey's test. P≤0.05 was considered significant.

[1] = tested on: Maximal electroshock seizures (MES); assay: Maximal electroshock (MES) model of seizure; type: in vivo, mouse
Procedure: The vehicle used in this study was 2:1:17 (ethanol:Cremophor:0.9% w/v NaCl). […] This was made to a solution at the highest concentration; then dissolved in ethanol before combination with Cremophor and 0.9% NaCl in the proportion described above. The 7-OH-CBDV was administered intraperitoneally at a volume of 10 ml/kg body weight.
Animal Species/Strain: Mouse/ICR, Microbiological grade: SPF, Inc. Sex: male, Age (at time of testing): 5-7 weeks old, Number of animals: about 5 animals per group. Temperature: 23±2° C., Humidity: 60±10%, Light conditions: 7 AM to 7 PM for the light period, 7 PM to 7 AM for the dark period. Chow and water: Free access to CRF-1 (Oriental Yeast Co, Ltd) and tap water.
One day before each experiment, mice were weighed and randomized into several groups in each test. On the morning of the experiment day, body weight was measured in order to calculate the administration volume of each animal. Vehicle, 7-OH-CBDV or CBDV was interperitoneally administered 30 minutes before electric stimuli. […]
All statistical analyses were performed using SAS Software for Windows, Release 9.1. The difference of the number (hindlimb extension or deaths) in each group was assessed using two-tailed Fisher's exact test. […]

[2] = WO 01/95899; cited from earlier work
[3] = tested on: seizures in epileptic patients; conditions: cited from earlier work
[4] = tested on: seizures after pro-convulsant drugs or an electric current; conditions: mice, after pro-convulsant drugs or an electric current (Consroe et al., 1982); cited from earlier work
[5] = CBDV and 7-OH CBDV 200 mg/kg, n=11
[6] = IP 30 min before PTZ, CBDV and 7-OH CBDV 200 mg/kg, n=11

| Structure (SMILES) | Anti-convulsant action in the PTZ model of acute seizure (PTZ-induced seizures) | Maximum observed seizure severity (median) (PTZ-induced seizures; [5]) | Mortality (PTZ-induced seizures; [6]) | Potency compared with parent cannabinoid (PTZ-induced seizures) | Anti-convulsant effects in the MES model ([1]; 150 and 200 mg/kg i.p.) | Latency to seizure onset (PTZ-induced seizures; [6]) | Latency to seizure onset (PTZ-induced seizures; IP 30 min before PTZ, CBDV and 7-OH CBDV 200 mg/kg, n=11, listed as 7-OH CBD) | Efficacy in a model of inflammation [2] | Patients becoming seizure free ([3]; 200 mg/day pure CBD, four adult patients (Mechoulam and Carlini, 1978)) | Control of seizures ([3]; 200 mg/day pure CBD, open label, twelve institutionalized adult patients (Ames and Cridland, 1986)) | Number of patients with marked reduction of seizures ([3]; eight adult patients with generalized epilepsy (Cunha et al., 1980)) | Epileptic patients describing an improvement in their condition ([3]; eight epileptic patients (Carlini et al., 1981)) | Prevention of seizures [4] | Incidence of tonic clonic seizures (PTZ-induced seizures; IP 30 min before PTZ, CBDV and 7-OH CBDV 200 mg/kg, n=11, FIG. 1C) | Percentage decrease in tonic clonic convulsions compared with vehicle ([1]; 200 mg/kg i.p., 30 minutes before electric stimuli, ICR mice) |
| --- | --- | --- | --- | --- | --- | --- | --- | --- | --- | --- | --- | --- | --- | --- | --- |
| C=C(C)[C@@H]1CCC(CO)=C[C@H]1c1c(O)cc(CCC)cc1O [7-OH-CBDV, 7-hydroxy-cannabidivarin] | show anti-convulsant action | 3 | significant effect on mortality | more potent than their parent cannabinoids | anti-convulsant effects |  |  |  |  |  |  |  |  |  |  |
| C=C(C)[C@@H]1CCC(CO)=C[C@H]1c1c(O)cc(CCCCC)cc1O [7-OH-CBD, 7-hydroxy-cannabidiol] | show anti-convulsant action |  | reduction in mortality | more potent than their parent cannabinoids |  | significantly reduce the latency to onset of seizures | significantly reduced the latency to seizure onset | found to be effective |  |  |  |  |  |  |  |
| C=C(C)[C@@H]1CCC(C)=C[C@H]1c1c(O)cc(CCCCC)cc1O [CBD, Cannabidiol] |  |  | reduction in mortality |  |  |  |  |  | two of the four patients became seizure free | ineffective in controlling seizures | 4 | Seven out of the eight | able to prevent seizures |  |  |
| C=C(C)[C@@H]1CCC(C)=C[C@H]1c1c(O)cc(CCC)cc1O [CBDV, Cannabidivarin] |  | significantly reduced seizure severity | significant effect on mortality |  |  |  |  |  |  |  |  |  |  | significantly reduced | 82% *** |
